# Structures can show the parent of a compound that is named as a salt.
# Biological target: T1, GSK3β (Homo sapiens, UniProt P49841)
# T1 construct: purchased Upstate xy
# Experiment: GSK3β biochemical in vitro assay (fluorescence, NADH-coupled)
# Details: 5 nM GSK3β, 40 μM substrate GSM, 50 μM ATP, 30° C., 2 hours
# Description: The inhibitory activity of active substances is determined in a biochemical assay. The ingredients required for this purpose are mixed in a black 384-well microtitre plate with transparent base (from Greiner, catalogue number 781092). The requirements in this connection for each well of the 384-well microtitre plate are 5 nM GSK3β (from Upstate, catalogue number xy), 40 μM GSK3B substrate GSM (sequence H-RRRPASVPPSPSLSRHS-(pS)-HQRR, from Upstate, catalogue number 2-533), 30 μM nicotinamide adenine dinucleotide NADH (Roche Diagnostics, catalogue number 10107735), 50 μM adenosine triphosphate ATP (from Sigma, catalogue number A7966), and 2 mM phosphoenolpyruvate (from Roche, catalogue number 128112). The required reaction buffer in which the biochemical reaction takes place consists of 50 mM Trizma hydrochloride tris-HCl pH: 7.5 (from Sigma, catalogue number T3253), 5 mM magnesium chloride MgCl2 (from Sigma, catalogue number M8266), 0.2 mM DL-dithiothreitol DTT (from Sigma, catalogue number D9779), 2 mM ethylenediaminethertetraacid EDTA (from Sigma, catalogue number E6758), 0.01% Triton X-100 (from Sigma, catalogue number T8787) and 0.05% bovine serum albumin BSA (from Sigma, catalogue number B4287).
# Active substances are dissolved in dimethyl sulphoxide DMSO (from Sigma, catalogue number D8418) in a concentration of 10 mM. Active substances are added in serial concentrations of 10 μM, 1 μM, 0.1 μM, 0.01 μM, 0.001 μM, 0.0001 μM, 0.00001 μM, 0.000001 μM to the mixtures of the biochemical reaction. As control, dimethyl sulphoxide is added instead of substance in a final concentration of 0.1%.
# The reaction is incubated at 30° C. for 2 hours and then the resulting fluorescence is measured in a Tecan Safire-XFLUOR4 instrument, version V4.50 (serial number 12901300283) with the specifications: measurement mode—fluorescence measured from below, extinction wavelength 340 nm, emission wavelength 465 nm, slit width extinction 5 nm, slit width emission 5 nm, gain mode 120, delay 0 μs, number of light flashes per measurement 3, and an integration time of 40 μs.
# The activity of the active substances is calculated in relation to these 0% and 100%.
# T1 sequence (P49841 whole entry, species assumed): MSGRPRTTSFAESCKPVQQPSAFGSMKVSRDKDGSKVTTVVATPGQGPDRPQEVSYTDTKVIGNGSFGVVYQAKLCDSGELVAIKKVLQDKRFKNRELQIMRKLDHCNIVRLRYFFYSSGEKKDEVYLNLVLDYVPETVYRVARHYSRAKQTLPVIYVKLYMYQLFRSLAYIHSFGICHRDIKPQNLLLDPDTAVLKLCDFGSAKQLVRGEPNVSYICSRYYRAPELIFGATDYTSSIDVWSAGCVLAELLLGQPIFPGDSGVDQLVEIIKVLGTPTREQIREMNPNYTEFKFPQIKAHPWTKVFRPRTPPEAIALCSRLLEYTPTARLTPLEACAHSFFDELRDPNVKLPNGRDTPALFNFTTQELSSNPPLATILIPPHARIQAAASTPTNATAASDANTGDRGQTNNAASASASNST
row,IC50,Structure (SMILES)
1,22 nM,COC(=O)c1sc(NCCNc2nc(-c3ccc(Cl)cc3Cl)cc3nccn23)nc1N [Example 134]
2,50 nM,N#Cc1ccc(NCCNc2nc(-c3ccc(C(F)(F)F)cc3)cc3nc(CN4CCOCC4)nn23)nc1N [Example 180]
3,15 nM,"N#Cc1sc(NCCNc2nc(-c3ccc(Cl)cc3Cl)cc3nccn23)nc1N [Example 5, 4-Amino-2-[(2-{[7-(2,4-dichlorophenyl)imidazo[1,2-c]pyrimidin-5-yl]amino}ethyl)amino]-1,3-thiazole-5-carbonitrile]"
4,12 nM,"N#Cc1ccc(NCCNc2nc(-c3ccc(Cl)cc3Cl)cc3nccn23)nc1N [Example 148, 2-Amino-6-[(2-{[7-(2,4-dichlorophenyl)imidazo[1,2-c]pyrimidin-5-yl]amino}ethyl)amino]-pyridine-3-carbonitrile]"
5,24 nM,"CN(C)Cc1cn2c(NCCNc3ccc([N+](=O)[O-])c(N)n3)nc(-c3ccc(Cl)cc3Cl)cc2n1 [Example 147, N^6-[2-({7-(2,4-Dichlorophenyl)-2-[(dimethylamino)methyl]imidazo[1,2-c]pyrimidin-5-yl}amino)-ethyl]-3-nitropyridine-2,6-diamine trifluoroacetate]"
6,196 nM,Nc1nc(NCCNc2nc(-c3ccc(C(F)(F)F)cc3)cc3nccn23)ccc1[N+](=O)[O-] [Example 66]
7,5 nM,CC(=O)c1sc(NCCNc2nc(-c3ccc(Cl)cc3Cl)cc3nccn23)nc1N [Example 137]
8,19 nM,"N#Cc1ccc(NCCNc2nc(-c3ccc(Cl)cc3Cl)cc3ncc(Cl)n23)nc1 [Example 154, 6-[(2-{[3-Chloro-7-(2,4-dichlorophenyl)imidazo[1,2-c]pyrimidin-5-yl]amino}ethyl)amino]-pyridine-3-carbonitrile]"
9,148 nM,Nc1nc(NCCNc2nc(-c3ccc(OC(F)(F)F)cc3)cc3nccn23)ccc1[N+](=O)[O-] [Example 32]
10,44 nM,"O=[N+]([O-])c1ccc(NCCNc2nc(-c3ccc(Cl)cc3Cl)cc3nccn23)nc1 [Example 6, N-[7-(2,4-Dichlorophenyl)imidazo[1,2-c]pyrimidin-5-yl]-N′-(5-nitropyridin-2-yl)ethane-1,2-diamine]"
11,17 nM,"Cc1cn2c(NCCNc3ccc([N+](=O)[O-])c(N)n3)nc(-c3ccc(Cl)cc3Cl)cc2n1 [Example 77, N^6-(2-{[7-(2,4-Dichlorophenyl)-2-methylimidazo[1,2-c]pyrimidin-5-yl]amino}ethyl)-3-nitropyridine-2,6-diamine]"
12,93 nM,Nc1nc(NCCNc2nc(-c3ccccc3)cc3nccn23)ccc1[N+](=O)[O-] [Example 57]
13,124 nM,N#Cc1ccc(NCCNc2nc(-c3ccc(C(F)(F)F)cc3)cc3nc(C(=O)NC(CO)CO)cn23)nc1 [Example 120]
14,72 nM,"N#Cc1ccc(NCCNc2nc(-c3ccc(C(F)(F)F)cc3)cc3ncnn23)nc1 [Example 93, 6-{[2-({7-[4-(Trifluoromethyl)phenyl][1,2,4]triazolo[1,5-c]pyrimidin-5-yl}amino)ethyl]amino}-nicotinonitrile]"
15,39 nM,N#Cc1sc(NCCNc2nc(-c3ccc(Cl)cc3Cl)cc3nc(CN4CCOCC4)nn23)nc1N [Example 185]
16,3 nM,Nc1nc(NCCNc2nc(-c3ccc(Cl)cc3Cl)cc3ncnn23)sc1C(=O)C(F)(F)F [Example 203]
17,81 nM,Nc1nc(NCCNc2nc(-c3ccc(F)c(Cl)c3)cc3nccn23)ccc1[N+](=O)[O-] [Example 53]
18,8 nM,"Nc1nc(NCCNc2nc(-c3ccc(Cl)cc3Cl)cc3nc(CN4CCOCC4)cn23)ccc1[N+](=O)[O-] [Example 81, N^6-(2-{[7-(2,4-Dichlorophenyl)-2-(morpholin-4-ylmethyl)imidazo[1,2-c]pyrimidin-5-yl]amino}ethyl)-3-nitropyridine-2,6-diamine trifluoroacetate]"
19,22 nM,"N#Cc1ccc(NC2CCCN(c3nc(-c4ccc(Cl)cc4Cl)cc4nccn34)C2)nc1 (single isomer, unassigned) [Ent. B 123, 6-({1-[7-(2,4-dichlorophenyl)imidazo[1,2-c]pyrimidin-5-yl]piperidin-3-yl}amino)pyridine-3-carbonitrile trifluoroacetate]"
20,3 nM,"CC(=O)c1sc(NC2CCCN(c3nc(-c4ccc(Cl)cc4Cl)cc4nccn34)C2)nc1N (stereo not shown) [Example 128, 1-[4-amino-2-({1-[7-(2,4-dichlorophenyl)imidazo[1,2-c]pyrimidin-5-yl]piperidin-3-yl}amino)-1,3-thiazol-5-yl]ethanone trifluoroacetate]"
21,10 nM,"Nc1nc(NCCNc2nc(-c3ccc(Cl)cc3Cl)cc3nccn23)ccc1C(=O)C(F)(F)F [Example 149, 1-{2-Amino-6-[(2-{[7-(2,4-dichlorophenyl)imidazo[1,2-c]pyrimidin-5-yl]amino}ethyl)amino]-pyridin-3-yl}-2,2,2-trifluoroethanone hydrochloride]"
22,23 nM,Cc1cc(F)ccc1-c1cc2nccn2c(NCCNc2ccc([N+](=O)[O-])c(N)n2)n1 [Example 39]

row,IC50,Structure (SMILES)
1,15 nM,Cc1cc(C)cc(-c2cc3nccn3c(NCCNc3ccc([N+](=O)[O-])c(N)n3)n2)c1 [Example 36]
2,54 nM,CN(C)CCNC(=O)c1cn2c(NCCNc3ccc(C#N)cn3)nc(-c3ccc(Cl)cc3Cl)cc2n1 [Example 112]
3,62 nM,"N#Cc1ccc(NCCNc2nc(-c3ccc(Cl)cc3Cl)cc3nc(CN4CCOCC4)cn23)nc1 [Example 145, 6-[(2-{[7-(2,4-Dichlorophenyl)-2-(morpholin-4-ylmethyl)imidazo[1,2-c]pyrimidin-5-yl]amino}-ethyl)amino]pyridine-3-carbonitrile trifluoroacetate]"
4,5 nM,"Nc1nc(NCCNc2nc(-c3ccc(Cl)cc3Cl)cc3nccn23)ccc1[N+](=O)[O-] [Example 4, N^6-(2-{[7-(2,4-Dichlorophenyl)imidazo[1,2-c]pyrimidin-5-yl]amino}ethyl)-3-nitropyridine-2,6-diamine]"
5,5 nM,N#Cc1sc(NC2CCCN(c3nc(-c4ccc(Cl)cc4Cl)cc4ncnn34)C2)nc1N (stereo not shown) [Example 202]
6,94 nM,N#Cc1ccc(NCCNc2nc(-c3ccc(C(F)(F)F)cc3)cc3nc(C(=O)NCCO)cn23)nc1 [Example 117]
7,173 nM,CC(C)Cn1cc(-c2cc3nccn3c(NCCNc3ccc([N+](=O)[O-])c(N)n3)n2)cn1 [Example 63]
8,14 nM,"N#Cc1ccc(NCCNc2nc(-c3ccc(Cl)cc3Cl)cc3ncc(Br)n23)nc1 [Example 153, 6-[(2-{[3-Bromo-7-(2,4-dichlorophenyl)imidazo[1,2-c]pyrimidin-5-yl]amino}ethyl)amino]-pyridine-3-carbonitrile]"
9,7 nM,Nc1nc(NCCNc2nc(-c3ccc(Cl)cc3Cl)cc3nccn23)sc1C(=O)C(F)(F)F [Example 129]
10,0.7 nM,Nc1nc(NCCNc2nc(-c3ccc(Cl)cc3Cl)cc3nc(CN4CCOCC4)nn23)ccc1C(=O)C(F)(F)F [Example 194]
11,61 nM,COC(=O)c1ccc(NCCNc2nc(-c3ccc(Cl)cc3Cl)cc3ncnn23)nc1N [Example 167]
12,178 nM,CC(C)(C)c1ccc(-c2cc3nccn3c(NCCNc3ccc(C#N)cn3)n2)cc1 [Example 8]
13,34 nM,"N#Cc1ccc(NCCNc2nc(-c3ccc(Cl)cc3Cl)cc3nccn23)nc1 [Example 1, 6-[(2-{[7-(2,4-Dichlorophenyl)imidazo[1,2-c]pyrimidin-5-yl]amino}ethyl)amino]nicotinonitrile]"
14,27 nM,N#Cc1sc(NCCNc2nc(-c3ccc(C(F)(F)F)cc3)cc3ncnn23)nc1N [Example 186]
15,11 nM,"CC(=O)c1ccc(NCCNc2nc(-c3ccc(Cl)cc3Cl)cc3nccn23)nc1N [Example 150, 1-{2-Amino-6-[(2-{[7-(2,4-dichlorophenyl)imidazo[1,2-c]pyrimidin-5-yl]amino}ethyl)amino]-pyridin-3-yl}ethanone hydrochloride]"
16,41 nM,CN1CCN(CCNC(=O)c2cn3c(NCCNc4ccc(C#N)cn4)nc(-c4ccc(Cl)cc4Cl)cc3n2)CC1 [Example 113]
17,6 nM,Nc1nc(NCCNc2nc(-c3ccc(Cl)cc3Cl)cc3nccn23)sc1C(=O)C1CC1 [Example 131]
18,183 nM,"N#Cc1ccc(NCCNc2nc(-c3ccc(C(F)(F)F)cc3)cc3nccn23)nc1 [Example 7, 6-{[2-({7-[4-(Trifluoromethyl)phenyl]imidazo[1,2-c]pyrimidin-5-yl}amino)ethyl]amino}-nicotinonitrile]"
19,24 nM,Cc1cccc(-c2cc3nccn3c(NCCNc3ccc([N+](=O)[O-])c(N)n3)n2)c1 [Example 40]
20,23 nM,Cc1cccc(-c2cc3nccn3c(NCCNc3ccc([N+](=O)[O-])c(N)n3)n2)c1C [Example 38]
21,91 nM,CCOc1ccc(-c2cc3nccn3c(NCCNc3ccc([N+](=O)[O-])c(N)n3)n2)cc1 [Example 56]
